Where two headings read alike, the source gives them in different places.
Columns and labels:
[1] = FUR alone 5 mg/kg PO
[2] = cited from earlier work
[3] = PK of NOV (oral, given with FUR) in rats; format: in vivo, Sprague-Dawley rats; conditions: NOV 20 mg/kg PO; for CL renal: Sprague-Dawley, rat, urine and whole blood, read-out: NOV renal clearance (CLR) (converted)
Description: The rats were housed 2–3 per cage in a specific-pathogen-free facility with controlled light (14/10 h, light/dark cycle), temperature (20–26 °C), and humidity (50 ± 20%).
For groups 2 and 4, the rats were fasted between 4 h prior to dosing and 2 h post-dose with free access to water. […] The blood samples (25 µL) were collected in duplicate in 1 mL tubes and mixed with an equal volume of water containing heparin (30 IU/mL containing 0.05% formic acid) at pre-dose, 0.25, 0.5, 0.75, 1, 1.5, 2, 4, and 6 h.
Next, 300 µL of acetonitrile containing FUR-d5 (as internal standard; 300 ng/mL) was added to 50 µL of the calibration curve standards, QC samples, and rat blood samples to precipitate blood proteins. […] One μL of the sample was injected and LC separation was achieved using an Acquity UPLC HSS T3 column (100Å, 1.8 µm, 1 mm × 100 mm) and mobile phase (A: water with 0.1% formic acid and B: acetonitrile with 0.1% formic acid; 50 μL/min flow) with a gradient program: 0.0–1.5 min (5% B), 1.5–3.5 min (5–70% B), 3.5–5 min (70–90% B), 5–7.5 min (90% B), and 7.5–7.6 min (90–5% B), followed by 5% B until 8.5 min. […] The cone voltage (CV) was 25 V.
Similarly, 25 µL of urine sample (diluted 10-fold with water containing 0.1% formic acid) was mixed with 75 µL of acetonitrile containing 100 ng/mL of FUR-d5.
(1) CLR=Ae 0−6 h/AUC0−6 h where, Ae is the cumulative amount of drug excreted unchanged in the urine between 0 to 6 h.

OAT1 = system: OAT1; parameters: method as in PMID 16489126, PMID 26700956, PMID 19282394; conditions: human OAT1; cited from earlier work
OAT3 = system: OAT3; parameters: method as in PMID 16489126, PMID 26700956, PMID 19282394; conditions: human OAT3; cited from earlier work
human Bcrp = conditions: cited from earlier work
Bcrp = system: Bcrp; parameters: method as in PMID 31868552; conditions: rats, cited from earlier work

SMILES: NS(=O)(=O)c1cc(C(=O)O)c(NCc2ccco2)cc1Cl [FUR, Furosemide]
- FUR CLR, male compared to female rats [1]: 2 fold
- Fraction excreted unchanged in urine, fe [2]: ≈ 65%

SMILES: CO[C@@H]1[C@@H](OC(N)=O)[C@@H](O)[C@H](Oc2ccc3c(O)c(NC(=O)c4ccc(O)c(CC=C(C)C)c4)c(=O)oc3c2C)OC1(C)C [NOV, Novobiocin]
- AUC and Cmax of NOV, male vs female rats [3]: comparable
- CL renal ([3]; female rats): 0.00833 mL/min
- CL renal ([3]; male rats): 0.0383 mL/min
- Food-effect on the PK of NOV ([3]; fed vs fasted state): no food-effect
- IC50 (OAT1): 34.8 µM
- IC50 (OAT3): 5 µM

SMILES: O=C(O)c1cc(/N=N/c2ccc(S(=O)(=O)Nc3ccccn3)cc2)ccc1O [sulfasalazine]
- Effect of NOV on systemic clearance of sulfasalazine (Bcrp; intravenous dosing): not influenced
- Increase of sulfasalazine AUC with NOV coadministration (Bcrp; oral administration): 3.2 fold
- Increase of sulfasalazine Cmax with NOV coadministration (Bcrp; oral administration): 5.9 fold
